Experimental data reported in the supplement of paper PMC5908809.

What was measured:
[1] = tested on: normal NK cells expanded with K562-aAPC; test: drug sensitivity score (DSS) (DSS units); higher = more sensitive; extreme values may be limits of the assay; conditions: 72 h; IL-2 2.5 ng/mL
Procedure: (§1)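 Drug sensitivity and resistance testing on K562-aAPC-expanded normal NK cells: 5 concentrations (10-fold steps over a 10,000-fold range), 72 h at 37 °C, viability by CellTiter-Glo normalised to DMSO and benzethonium chloride controls; DSS from the fitted curve.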

[2] = tested on: NK-YS (IL-2 2.5 ng/mL); test: as above; conditions: 72 h
[3] = tested on: KHYG-1 (IL-2 2.5 ng/mL); test: as above; conditions: 72 h
[4] = tested on: normal primary NK cells, pool 1 (3 donors), resting (IL-2 0 ng/mL); test: as above; conditions: 72 h
[5] = tested on: normal primary NK cells, pool 1 (3 donors) (IL-2 2.5 ng/mL); test: as above; conditions: 72 h
[6] = tested on: YT (IL-2 2.5 ng/mL); test: as above; conditions: 72 h
[7] = tested on: DERL-7 (IL-2 2.5 ng/mL); test: as above; conditions: 72 h
[8] = tested on: KAI3 (IL-2 2.5 ng/mL); test: as above; conditions: 72 h
[9] = tested on: NKL (IL-2 2.5 ng/mL); test: as above; conditions: 72 h
[10] = tested on: SNK-6 (IL-2 2.5 ng/mL); test: as above; conditions: 72 h
[11] = tested on: IMC-1 (IL-2 20 ng/mL); test: as above; conditions: 72 h
[12] = tested on: normal primary NK cells, pool 3 (3 donors) (IL-2 2.5 ng/mL); test: as above; conditions: 72 h
[13] = tested on: NK-92 (IL-2 2.5 ng/mL); test: as above; conditions: 72 h
[14] = tested on: normal primary NK cells, pool 2 (3 donors) (IL-2 2.5 ng/mL); test: as above; conditions: 72 h
[15] = tested on: NK-YS (IL-2 2.5 ng/mL); test: percent inhibition of viability; higher = more inhibition; conditions: 72 h
[16] = tested on: KHYG-1 (IL-2 2.5 ng/mL); test: as above; conditions: 72 h
[17] = tested on: normal primary NK cells, pool 1 (3 donors), resting (IL-2 0 ng/mL); test: as above; conditions: 72 h
[18] = tested on: normal primary NK cells, pool 1 (3 donors) (IL-2 2.5 ng/mL); test: as above; conditions: 72 h
[19] = tested on: YT (IL-2 2.5 ng/mL); test: as above; conditions: 72 h
[20] = tested on: DERL-7 (IL-2 2.5 ng/mL); test: as above; conditions: 72 h
[21] = tested on: KAI3 (IL-2 2.5 ng/mL); test: as above; conditions: 72 h
[22] = tested on: NKL (IL-2 2.5 ng/mL); test: as above; conditions: 72 h
[23] = tested on: SNK-6 (IL-2 2.5 ng/mL); test: as above; conditions: 72 h
[24] = tested on: IMC-1 (IL-2 20 ng/mL); test: as above; conditions: 72 h
[25] = tested on: normal primary NK cells, pool 3 (3 donors) (IL-2 2.5 ng/mL); test: as above; conditions: 72 h
[26] = tested on: NK-92 (IL-2 2.5 ng/mL); test: as above; conditions: 72 h
[27] = tested on: normal primary NK cells, pool 2 (3 donors) (IL-2 2.5 ng/mL); test: as above; conditions: 72 h
[28] = tested on: normal NK cells expanded with K562-aAPC; test: as above; conditions: 72 h, IL-2 2.5 ng/mL
Procedure: as §1

C[C@@H](Nc1cc(F)cc(F)c1)c1cc(C(=O)N(C)C)cc2c(=O)cc(N3CCOCC3)oc12 [AZD-8186] (max concentration tested 1000 nM)
Conditions | drug sensitivity score
[1] | 0
[2] | 0
[3] | 0
[4] | 2.41
[5] | 0.51
[6] | 0
[7] | 1.36
[8] | 0
[9] | 0
[10] | 0
[11] | 0
[12] | 0
[13] | 2.45
[14] | 0

percent inhibition of viability [%]
Conditions | 0.1 nM | 1 nM | 10 nM | 100 nM | 1000 nM
[15] | -5.07 | -6.92 | -2.82 | -2.72 | 4.56
[16] | -0.98 | -2.42 | -2.86 | 0.88 | -3.51
[17] | 3.9 | -3.52 | 11.1 | 13.5 | 24.3
[18] | -5.02 | -7 | 5.11 | 5.09 | 16.9
[19] | -0.09 | -4.44 | -2.79 | 1.47 | 3.03
[20] | -0.61 | -0.52 | 0.73 | 12.4 | 17.2
[21] | -2.99 | 1.77 | 1.66 | 8.81 | 5.34
[22] | -15.3 | -13.8 | -5.07 | -8.33 | -6.27
[23] | 10 | 11.1 | -10.9 | -9.3 | -17.3
[24] | -4.26 | -2.05 | -9.6 | -12.9 | -13.3
[25] | -6.84 | -3.88 | -7.48 | -5.25 | -2.65
[26] | -5.14 | -3.4 | -6.34 | 7.87 | 29.8
[27] | -10.7 | -2.64 | -11.3 | -1.73 | 4.08
[28] | -7 | -2.1 | -0.27 | 1.82 | 6.33
